# Measured values reported in patent publication US20220127297A1, “Novel Antibacterial 3"-Derivatives Of 4,6-Disubstituted 2,5-Dideoxystreptamine Aminoglycoside Antibiotics” (AGILeBiotics B.V., priority 2018, published 2022).
# Tests used:
# E. coli (AAC(3)IV) = assay: MIC 50, broth micro-dilution, E. coli expressing AAC(3)IV; assay type: cell-based, Escherichia coli; details: Escherichia coli, ATCC25922, ATCC25922 harboring plasmid encoding AAC(3)IV
# Method: (§1) Plasmid transformation. Approximately 500 ng of the pET-9b(+) (Cat. No. 69432-3, Merck), pAT21-1 (provided by Prof. Dr. Patrice Courvalin, M.D., Pasteur Institute, France; prepared according to Trieu-Cuot et. al, Mol. Gen. Genet. 198(2), 348 (1985)), pBluescript::AAC(6′)-Ie/APH(2″)-Ia (provided by Prof. Dr. Sergei Vakulenko, M.D., University of Notre Dame, Ind., USA; prepared according to S. B. Vakulenko et. al., J. Biol. Chem. 287 (52), 43262 (2012)), pBlue_lpp_aacC3_rrnC and pSET152 (Cat. No. PVT3395, Life Science Market; prepared according to Bierman et al., Gene 116 (1), 43 (1992)) plasmids, encoding APH(3′)-Ia (SEQ ID NO:2), APH(3′)-IIIa (SEQ ID NO:3), AAC(6′)Ie-APH(2″)-Ia (SEQ ID NO:4), AAC(3)-III (SEQ ID NO:1), and AAC(3)-IV (SEQ ID NO:5) respectively, were individually incubated in a vial of competent cells for 15 min on ice. The cells were subsequently heated to 42° C. for 90 s, and cooled on ice for 1 min. After addition of 900 μL LB, the cells were incubated for 1 h at 37° C. and 200 rpm. Cells were plated on LB-agar supplemented with 50 μg/mL KanaA and incubated for 18 h at 37° C. The next day, a single colony was inoculated in 5 mL LB supplemented with 50 μg/mL and grown for 18 h at 37° C. and 200 rpm. A 200 μL sample of each culture was diluted with 200 μL of 40% v/v glycerol in water, and stored at −80° C. The plasmid was purified from the remaining culture using the Plasmid Miniprep kit. Plasmid DNA was investigated by Eurofins Genomics (Germany) to confirm the identity of the aminoglycoside resistance genes.
# (§2) 3.1 Against E. coli Strains
# (§3) Tested reference compounds. Amikacin sulfate (Cat. No. 01693, Chem-Impex), Gentamicin sulfate (Cat. No. G4918, Sigma Aldrich).
# (§4) Microbial strains. E. coli ATCC 25922, E. coli ATCC 25922/pET-9b(+), E. coli ATCC 25922/pAT21-1, E. coli ATCC 25922/pBluescript::AAC(6′)-Ie/APH(2″)-Ia, E. coli ATCC 25922/pBlue_lpp_aacC3_rrnC, E. coli ATCC 25922/pSET152.
# (§5) Culture media and equipment. BBL™ Mueller Hinton Broth 2 (Lot. BCBW1143, Cat. No. 70192, Sigma); Kanamycin A (Cat. No. A1493, AppliChem); 96-well deep well plate, 1 mL (Cat. No. 0030506.200, Eppendorf); Plate lids (Cat. No. 0030131.525, Eppendorf); 96-well plate, F-bottom (Cat. No. 781602, Brand; Incubator, Infors Multitron Pro); Laminar flow (Heraeus KS12); UV/VIS meter (Eppendorf BioPhotometer Plus); Platereader (Tecan Sunrise).
# (§6) Compound preparation. Compounds were prepared in MH2 media at a concentration of 5 mM and stored at 4° C. For testing, solutions of 128 μM were prepared in MH2. Out of these working solutions, 400 μL was transferred to wells in the first column of 96-well deep well plates. Each compound was transferred in triplicate. Plates were previously filled with 200 μL of MH2 media in all wells except for the wells in the first column. After compound and antibiotic addition, the compounds were serial two-fold diluted by transferring 200 μL from the first to the second column, then from the second to the third column and so on. Finally, 200 μL was removed from the last column.
# (§7) Inoculum preparation. Microorganisms used were all revived from 20% glycerol (40% v/v glycerol in water was diluted with MH2) storage at −80° C. by inoculating them in 5 mL MH2. inoculums of E. coli containing a plasmid were selected for by adding 50 μg/mL KanaA. The Inoculums were grown to an optical density (measured by UV/Vis spectroscopy) of 0.6-0.8 at 600 nm. Out of these suspensions, actual inoculums were prepared by diluting them to an optical density (OD) of 0.1 in MH2 media. From these inoculums, 200 μL was transferred to each well, resulting in a final compound concentration range of 64 μM-31.3 nM. All plates were incubated at 900 rpm and 70% rH for 18 h at 37° C.
# (§8) MIC determination. After 18 h of growth, 200 μL was transferred to a 96-well F-bottom plate. The optical density was determined by a plate reader at 600 nm, with 10 s shaking before reading. Triplicate measurements were averaged, and a growth curve was plotted in Microsoft Excel. […]
# E. coli (APH(3′)IIIa) = assay: MIC 50, broth micro-dilution, E. coli expressing APH(3′)IIIa; assay type: cell-based, Escherichia coli; details: Escherichia coli, ATCC25922, ATCC25922 harboring plasmid encoding APH(3′)IIIa
# Method: as §1, §2, §3, §4, §5, §6, §7, §8
# E. coli (AAC(3)III) = assay: MIC 50, broth micro-dilution, E. coli expressing AAC(3)III; assay type: cell-based, Escherichia coli; details: Escherichia coli, ATCC25922, ATCC25922 harboring plasmid encoding AAC(3)III
# Source text: Cloning resistant enzymes. An Escherichia coli codon optimized gene encoding AAC(3)-III (GenBank acc.nr. X55652.1; SEQ ID NO:1), including a promoter and terminator sequence, was synthesized by Integrated DNA Technologies, Belgium. The synthesized gene and pBluescript II KS(+) plasmid were digested using the restriction enzymes SacI and SalI, and purified from a 1% TBE-agarose gel using the illustra Gel Band purification kit. The purified linear plasmid and T4 DNA ligase were used to ligate aac(3)-III under control of the constitutive lipoprotein Ipp promoter and ribosomal RNA rrnC terminator, resulting in pBlue_Ipp_aacC3_rrnC.
# as §1, §2, §3, §4, §5, §6
# Inoculum preparation. Microorganisms used were all revived from 20% glycerol (40% v/v glycerol in water was diluted with MH2) storage at −80° C. by inoculating them in 5 mL MH2. inoculums of E. coli containing a plasmid were selected for by adding 50 μg/mL KanaA.
# E. coli (APH(3′)Ia) = assay: MIC 50, broth micro-dilution, E. coli expressing APH(3′)Ia; assay type: cell-based, Escherichia coli; details: Escherichia coli, ATCC25922, ATCC25922 harboring plasmid encoding APH(3′)Ia
# Method: as §1, §2, §3, §4, §5, §6, §7, §8
# E. coli ATCC25922 strain = assay: MIC 50, broth micro-dilution, wild-type Escherichia coli; assay type: cell-based; details: Escherichia coli, ATCC25922, 18 h, MH2, 18 h
# Source text: as §2, §3, §4, §5, §6, §7
# MIC determination. After 18 h of growth, 200 μL was transferred to a 96-well F-bottom plate. The optical density was determined by a plate reader at 600 nm, with 10 s shaking before reading. Triplicate measurements were averaged, and a growth curve was plotted in Microsoft Excel. The first column in which the growth reached half the value of maximum growth was determined as the MIC50 value for that particular compound.
# MIC50. The MIC50 of a compound was assigned at which the bacterial growth reached half the value of maximum growth.
# [1] = system: E. coli (AAC(6′)Ie-APH(2″)Ia); assay: MIC 50, broth micro-dilution, E. coli expressing AAC(6′)Ie-APH(2″)Ia; assay type: cell-based, Escherichia coli; details: Escherichia coli, ATCC25922, ATCC25922 harboring plasmid encoding AAC(6′)Ie-APH(2″)Ia
# Method: as §1, §2, §3, §4, §5, §6, §7, §8
# [2] = system: clinical isolates of multidrug-resistant Klebsiella pneumoniae (and ATCC43816); assay: MIC determination at Fidelta, clinical isolates; assay type: cell-based; details: Klebsiella pneumoniae
# Source text: 3.4.2 MIC Determination at Fidelta (Croatia)
# Tested reference compounds. Amikacin sulfate (Cat. No. 01693, Chem-Impex), Gentamicin sulfate (Cat. No. G4918, Sigma Aldrich), Ceftazidime Pentahydrate (Cat. No. 1098130, USP), Meropenem (Cat. No. 1392454, USP), Tobramycin (Cat. No. 1667508, USP).
# Microbial strains. Klebsiella pneumoniae KP-1919 (abdomen), Klebsiella pneumoniae KP-1935 (urine), Klebsiella pneumoniae KP-1936 (abscess), Klebsiella pneumoniae KP-1937 (blood), Klebsiella pneumoniae KP-1942 (urine), Klebsiella pneumoniae KP-1944 (blood), Klebsiella pneumoniae KP-2027 (tracheal aspirate), Klebsiella pneumoniae KP-2029 (urine), Klebsiella pneumoniae KP-2030 (trachea), Klebsiella pneumoniae KP-2031 (skin), Klebsiella pneumoniae KP-2032 (urine), Klebsiella pneumoniae KP-2033 (urine), Klebsiella pneumoniae KP-2034 (urine), Klebsiella pneumoniae KP-2035 (urine), Klebsiella pneumoniae KP-2036 (urine), Klebsiella pneumoniae KP-2037 (urine), Klebsiella pneumoniae ATCC 43816, Pseudomonas aeruginosa PA-1948 (wound), Pseudomonas aeruginosa PA-1949 (urine), Pseudomonas aeruginosa PA-1950 (sputum), Pseudomonas aeruginosa PA-1952 (wound), Pseudomonas aeruginosa PA-1953 (urine), Pseudomonas aeruginosa PA-1954 (sputum), Pseudomonas aeruginosa PA-1967 (blood), Pseudomonas aeruginosa ATCC27853, Acinetobacter baumannii AB-1931 (urine), Acinetobacter baumannii AB-1932 (urine), Acinetobacter baumannii AB-2017 (bronchial aspirate), Acinetobacter baumannii AB-2018 (skin), Acinetobacter baumannii AB-2019 (bronchial aspirate), Acinetobacter baumannii AB-1964 (blood), Acinetobacter baumannii AB-2025 (skin), Acinetobacter baumannii AB-2026 (skin), Acinetobacter baumannii ATCC17978, methicillin-resistant Staphylococcus aureus MRSA-1995 (liquor), methicillin-resistant Staphylococcus aureus MRSA-1998 (wound), methicillin-resistant Staphylococcus aureus MRSA-1999 (skin), methicillin-resistant Staphylococcus aureus MRSA-2003 (wound), vancomycin-resistant Enterococcus faecium VRE-2005 (urine), vancomycin-resistant Enterococcus faecium VRE-2006 (urine), vancomycin-resistant Enterococcus faecium VRE-2007 (urine), vancomycin-resistant Enterococcus faecium VRE-2008 (urine), vancomycin-resistant Enterococcus faecium VRE-2009 (urine), vancomycin-resistant Enterococcus faecium VRE-2010 (urine), vancomycin-resistant Enterococcus faecium VRE-2011 (rectum), vancomycin-resistant Enterococcus faecium VRE-2012 (rectum), vancomycin-resistant Enterococcus faecium VRE-2013 (rectum).
# Culture media and equipment. BBL™ Mueller Hinton Broth (REF 275730, Lot. 7009699, Becton Dickinson); Mueller Hinton Agar 2 (Ref. No. 97580-500G-F, Lot. No. BCBV4646, Sigma); Cellstar, 96-well plates, U-bottom (Cat. No. 650180, Lot. No. E14123EB, Greiner Bio-one); 96-well deep well plate, 1 mL (Cat. No. 278606, Nunc); Incubator (Binder); Laminar flow (Thermo Scientific); BioPhotometer (Eppendorf); DEN-1B (McFarland Densitometer, Biosan); McFarland standards (polymer microparticle suspension, Biosan).
# Compound preparation. For testing, 5 mg/mL DMSO solutions of the test compounds and reference antibiotics were used. Out of these DMSO solutions, 43.5 μL was transferred to 1656.5 μL of MH media in a deep well plate. Out of these working solutions 100 μL was transferred to wells in the third column of 96-well plates. Plates are previously filled with 50 μL of MH media in all wells except for the wells in the third column. After compound and antibiotic addition, 50 μL was transferred from the third to the fourth column, then from the fourth to the fifth and so on. In this manner, the compounds and antibiotics were plated in 96-well plate in serial two-fold dilutions giving a final concentration range of 64-0.125 μg/mL.
# Inoculum preparation. Designations used for clinical isolates were from Fidelta strain collection bank. Microorganisms used were all revived from skim milk storage at −70° C. by plating them on MH agar plates.
compound,measurement,setting,value
"N=C(N)NC1[C@@H](O)C(OC2[C@@H](F)[C@H](O[C@H]3OC(CN)[C@@H](O)CC3N)C(N)C[C@H]2NC(=O)[C@@H](F)CCN)O[C@H](CO)[C@H]1O (some centres unmarked) [ABX5034, Tobra-(AFB)-F-Gua]",MIC50,E. coli (AAC(3)IV),2 to 4 µM
same,MIC50,E. coli (APH(3′)IIIa),0.5 to 1 µM
same,MIC50,E. coli (AAC(3)III),0.5 to 1 µM
same,MIC50,E. coli (APH(3′)Ia),1 µM
same,MIC50,E. coli ATCC25922 strain,1 µM
same,MIC50,[1],1 µM
"NC[C@H]1O[C@H](O[C@H]2[C@H](O)[C@@H](O[C@H]3O[C@H](CO)[C@@H](O)[C@H](N)[C@H]3O)[C@H](N)C[C@@H]2N)[C@H](N)C[C@@H]1O [Tobramycin, tobramycin]",MIC90,[2]; ATCC43816,0.125 µg/mL
same,MIC90,"[2]; ATCC43816, KP-1919, Abdomen/VIM, ESBL",32 µg/mL
same,MIC90,"[2]; ATCC43816, KP-1935, Urine/ESBL, NDM",32 µg/mL
same,MIC90,"[2]; ATCC43816, KP-1936, Abscess/NDM",16 µg/mL
same,MIC90,"[2]; ATCC43816, KP-1937, Blood/VIM, ESBL",> 64 µg/mL
same,MIC90,"[2]; ATCC43816, KP-1942, Urine (catheter)/VIM",16 µg/mL
same,MIC90,"[2]; ATCC43816, KP-1944, Blood/NDM",32 µg/mL
same,MIC90,"[2]; ATCC43816, KP-2027, Tracheal aspirate/ESBL, OXA-48, ColR",16 µg/mL
same,MIC90,"[2]; ATCC43816, KP-2029, Urine/ESBL, OXA-48",32 µg/mL
same,MIC90,"[2]; ATCC43816, KP-2030, Trachea/ESBL, OXA-48",64 µg/mL
same,MIC90,"[2]; ATCC43816, KP-2031, Skin/ESBL, OXA-48",32 µg/mL
same,MIC90,"[2]; ATCC43816, KP-2032, Urine/ESBL, OXA-48",16 µg/mL
same,MIC90,"[2]; ATCC43816, KP-2033, Urine/OXA-A8",> 64 µg/mL
same,MIC90,"[2]; ATCC43816, KP-2034, Urine/ESBL, OXA-48",32 µg/mL
same,MIC90,"[2]; ATCC43816, KP-2035, Urine/ESBL, OXA-48",64 µg/mL
same,MIC90,"[2]; ATCC43816, KP-2036, Urine/ESBL",16 µg/mL
same,MIC90,"[2]; ATCC43816, KP-2037, Urine/ESBL, OXA-48",16 µg/mL
